Measured values from patent US20200378993A1, “MEDICAL USES OF APOLIPOPROTEIN A AND ACTIVATORS THEREOF” (FUNDACIÓN IMDEA ALIMENTACIÓN, priority 2017, published 2020).

How the values were obtained:
Assay type in all cases: cell-based, human
DLD1_ABCA1 cells = test: Cell viability and proliferation assay (XCELLigence); settings: 40 μg/ml apolipoprotein A1 (72 hours before, 20 μg/ml during acquisition); DLD1_ABCA1 cells
Method: (§1) FIG. 6. A) Proliferation curve in a viability assay carried out by means of XCELLigence technology. The results for the stable cell line overexpressing ABCA1 in the absence and presence of ApoA1 are shown. The cells were treated for 72 hours before the experiment with 40 μg/ml of ApoA1 and with a concentration of 20 μg/ml during acquisition. B) Migration and invasion assays. The method followed was the same as the one described in FIG. 1. (**p-value=0.003; ****p-value<0.0001). C) ABCA1 messenger RNA level (left panel) and ABCA1 protein level (right panel) in the presence and absence of treatment with ApoA1. Results are shown both for the control cells and for those cells overexpressing the transporter.
Cell viability and proliferation assays were carried out by means of XCELLigence technology (ACEA Biosciences, Inc.) following the manufacturer's indications. Migration and invasion assays were carried out in Corning® BioCoat™ Control plates (#354578) and Corning® BioCoat™ Matrigel plates (#354480), respectively, following the manufacturer's indications. […]
(§2) The inventors were able to confirm said results based on the treatment of DLD1 cells expressing ABCA1 with RVX-208 under the conditions already described in detail in Example 3. […] The levels of caveolin-1, a protein whose increased levels have been associated with increases in cell migration and invasion, were also analyzed in this experiment.

DLD1 cells [1] = test: Migration assay (Corning BioCoat Control plates); settings: ApoA1 40 μg/ml 72 hours before, 20 μg/ml during assay
Method: (§3) Cell viability and proliferation assays were carried out by means of XCELLigence technology (ACEA Biosciences, Inc.) following the manufacturer's indications. Migration and invasion assays were carried out in Corning® BioCoat™ Control plates (#354578) and Corning® BioCoat™ Matrigel plates (#354480), respectively, following the manufacturer's indications. For the rescue assays, the cells were treated for 72 hours with 30 μM apabetalone (RVX-208; Biovision). Antibodies: ABCA1 (Ab18180, Abcam. 1:500); caveolin-1 (Ab2910, Abcam. 1:1000); α-tubulin (T9026, Sigma 1:1000). The DLD1 cells correspond to a human colorectal cancer-derived adherent epithelial cell line (ATCC® CCL-221™). The stable cell lines capable of overexpressing ABCA1 were obtained by means of transduction with genetically modified lentivirus.
(§4) Following the same treatment regimen, the inventors carried out migration and invasion assays.
(§5) The same assays were repeated by replacing ApoA1 with a treatment with RVX-208. In this case, DLD1 cells were pre-treated for 72 hours before the start of the experiment with RVX-208 at a concentration of 30 μm and were subjected to a treatment with 15 μM of RVX-208 during the development of the experiments.

[2] = system: ABCA1 cholesterol transporter; test: ABCA1 messenger RNA and protein level after treatment
Method: as §1
FIG. 7. A) Proliferation curve in a viability assay carried out by means of XCELLigence technology. Growth of DLD1 cells treated with DMSO as the drug carrier and with Rvx-208 (30 μM). The significant differences existing in the slope of the graph, and therefore in the growth dynamics of the treated cells are shown in the right panel (****p-value<0.0001). B) Migration and invasion assays. The method followed was the same as the one described in FIG. 2 (*p-value=0.0407; ****p-value<0.0001). C) Expression levels of proteins E-cadherin and Vimentin in the presence and absence of Rvx-208. Analysis performed by means of quantitative PCR. The relative expression levels normalized with respect to the untreated control are shown. D) ABCA1, ApoA1, caveolin-1, and α-tubulin immunodetection by means of Western blot. α-tubulin acts as load control. The results of the cells treated with Rvx-208 (30 μM) or with the DMSO carrier are shown. E) Cholesterol flux in cells treated with Rvx-208.
as §3, with “The stable cell lines capable of overexpressing ABCA1 were obtained by means of transduction with genetically modified lentivirus.” left out
as §2

DLD1 cells [3] = test: Invasion assay (Corning BioCoat Matrigel plates); settings: ApoA1 40 μg/ml 72 hours before, 20 μg/ml during assay; DLD1 cells
Method: as §3, §4, §5
(§6) For the purpose of confirming that the effects of RVX-208 in cell phenotype recovery were due to the increase in ApoA-1 expression, the inventors inhibited the expression of said protein by means of transfection of a complementary small RNA, ShApoA1 (FIG. 9). Twenty-four hours after transfection with ShApoA1 expression vector, the inventors started treatment with 30 μM of RVX-208. Cell viability and proliferation in DLD1 cells (D_NoORF) and D1D1 cell lines expressing increased ApoA1 levels (D_ApoA1 ) were analyzed with the xCELLigence system.

DLD1 cells [4] = test: Cell viability and proliferation assay (XCELLigence); settings: ApoA1 40 μg/ml first dose of 72 hours, 20 μg/ml during result acquisition; DLD1 cells
Method: as §3, §4, §5, §6

[5] = treatment with ApoA1, control cells and cells overexpressing ABCA1

## ApoA1: apolipoprotein A1 protein administered to the cells
DLD1_ABCA1 cells
  proliferative capacity: dropped to levels that are comparable to the control situation
DLD1 cells [1]
  capacity to migrate to the serum-rich region: reduced capacities to migrate to the serum-rich region
[2]; direct treatment with ApoA1, as restated in Example 5 (FIG. 6C)
  ABCA1 levels: induces an increase in ABCA1 levels
[2]; [5]
  ABCA1 expression level, messenger RNA level: significantly decreases the expression levels
  ABCA1 expression level, protein level: significantly decreases the expression levels
DLD1 cells [3]
  capacity to invade the extracellular matrix: reduced capacities
DLD1 cells [4]
  cell proliferation: significant decrease in cell proliferation
